The record followed here is patent US20210261538A1, “PROTEIN ARGININE METHYLTRANSFERASE 5 (PRMT5) DEGRADATION / DISRUPTION COMPOUNDS AND METHODS OF USE” (ICAHN SCHOOL OF MEDICINE AT MOUNT SINAI, priority 2018, published 2021).

Entries after “also recorded” stand apart in the source; their conditions may differ.

One series deals with PRMT5 substrates. Put plainly: Arginine symmetric dimethylation (SDMA Western blot) in MCF-7 cells. The series is classed as cell-based. How it is done: (§1) MCF-7 cells, HEK293T cells and HeLa cells were cultured in Dulbecco's Modified Eagle Medium (DMEM) supplemented with 10% fetal bovine serum (FBS) in 5% CO2 at 37° C. Jurkat cells were cultured in RPMI 1640 medium supplemented with 10% FBS in 5% CO2 at 37° C. H2171 cells were cultured in HITES medium supplemented with 10% FBS in 5% CO2 at 37° C. HCT116 were cultured in McCoy's 5A medium supplemented with 10% fetal bovine serum (FBS) in 5% CO2 at 37° C. All the cells lines were treated with 5 μM (or indicated concentration) of PRMT5 inhibitor (EPZ015666) or degraders, or equivalent volume of DMSO for 6 days (or indicated time points). Fresh compounds were constituted in medium and used for every 2 days. The antibodies used in this study are: PRMT5 antibody (Active Motif), (3-actin antibody (Sigma), SDMA antibody (collaboration with Cell Signaling Technologies). Cell cultures were harvested at the end of compound treatments and applied subjected to western blotting assay. Briefly, cells were washed with PBS and lysed with RIPA lysis buffer for 20 minutes on ice. Then lysates were centrifuged and the clear supernatant were collected. SDS loading buffer was added to the lysates and then the mixture was boiled at 100° C. for 5 minutes. Samples were loaded to 10% or 12% SDS-PAGE gel and ran at 120V for 1.5 hours. Then the proteins were transferred to PVDF membrane and blocked in 5% milk fat at room temperature for 1 hour. Then the membranes were incubated with indicated antibodies at 4° C. overnight. Membranes were washed with PBST buffer three times for 10 minutes each time and incubated with HRP-conjugated (horse radish peroxidase) secondary antibodies at room temperature for 1 hour. Again the membranes were washed with PBST buffer three times for 10 minutes each time. Finally, the indicated proteins on the membranes were visualized with ECL (enhanced chemiluminescence) reagents. MCF-7 cells were treated with EPZ015666 or YS43-22 at indicated compound concentrations (μM) for 6 days.
In general terms: A western blot detects proteins with antibodies after separation by electrophoresis.

Another series relates to MCF-7 cells. Put plainly: Cell proliferation assay (Cell-Titer Glo) in MCF-7 cells. Format: cell-based. The settings on record: 5 μM, 10 days. How it is done: The same starting number of MCF-7 cells were treated with DMSO, 5 μM EPZ015666 or YS43-22 for up to 10 days. Every two days, fresh compounds were constituted in DMEM medium and added to the cell culture. Relative cell numbers were counted every two days (i.e. day 0, 2, 4, 6, 8 and 10) using Cell-Titer Glo kit (Promega). MCF-7 cells were treated with DMSO, EPZ015666 (5 μM), or YS43-22 (5 μM) for 10 days.

Series [1] can be described thus: Standard PK study in mice. The series is classed as in vivo, male Swiss Albino mice. As to conditions: single 150 mg/kg IP injection. How it is done: Standard PK studies were conducted using male Swiss Albino mice. A single 150 mg/kg intraperitoneal (IP) injection of YS43-22 was evaluated. Plasma concentrations of YS43-22 reported at each of the six time points (15 min, 30 min, 1 h, 2 h, 6 h, and 12 h post dosing) are the average values from 3 test animals.

Series [2] has as its target T1, PRMT5 (Homo sapiens, UniProt O14744). Put plainly: Western blot of PRMT5 protein levels in Jurkat cells. The series is classed as cell-based. Details: endogenous in cells. As to conditions: 5 μM, 6 days. How it is done: as §1, with “Then the proteins were transferred to PVDF membrane and blocked in 5% milk fat at room temperature for 1 hour. Then the membranes were incubated with indicated antibodies at 4° C. overnight. Membranes were washed with PBST buffer three times for 10 minutes each time and incubated with HRP-conjugated (horse radish peroxidase) secondary antibodies at room temperature for 1 hour. Again the membranes were washed with PBST buffer three times for 10 minutes each time. Finally, the indicated proteins on the membranes were visualized with ECL (enhanced chemiluminescence) reagents. MCF-7 cells were treated with EPZ015666 or YS43-22 at indicated compound concentrations (μM) for 6 days.” left out

Series [3] deals with T1, PRMT5. Put plainly: Western blot of PRMT5 protein levels in HeLa cells. Format: cell-based. Details: endogenous in cells. The settings on record: 5 μM, 6 days. How it is done: as §1, with “Then the proteins were transferred to PVDF membrane and blocked in 5% milk fat at room temperature for 1 hour. Then the membranes were incubated with indicated antibodies at 4° C. overnight. Membranes were washed with PBST buffer three times for 10 minutes each time and incubated with HRP-conjugated (horse radish peroxidase) secondary antibodies at room temperature for 1 hour. Again the membranes were washed with PBST buffer three times for 10 minutes each time. Finally, the indicated proteins on the membranes were visualized with ECL (enhanced chemiluminescence) reagents. MCF-7 cells were treated with EPZ015666 or YS43-22 at indicated compound concentrations (μM) for 6 days.” left out

Series [4] has as its target T1, PRMT5. The series is described as follows: Western blot of PRMT5 protein levels in HCT116 cells. Format: cell-based. Details: endogenous in cells. As to conditions: 5 μM, 6 days. How it is done:
as §1, with “Then the proteins were transferred to PVDF membrane and blocked in 5% milk fat at room temperature for 1 hour. Then the membranes were incubated with indicated antibodies at 4° C. overnight. Membranes were washed with PBST buffer three times for 10 minutes each time and incubated with HRP-conjugated (horse radish peroxidase) secondary antibodies at room temperature for 1 hour. Again the membranes were washed with PBST buffer three times for 10 minutes each time. Finally, the indicated proteins on the membranes were visualized with ECL (enhanced chemiluminescence) reagents. MCF-7 cells were treated with EPZ015666 or YS43-22 at indicated compound concentrations (μM) for 6 days.” left out

For series [5], the target named is T1, PRMT5. Put plainly: Western blot of PRMT5 protein levels in H2171 cells. Format: cell-based. Details: endogenous in cells. The settings on record: 5 μM, 6 days. How it is done: as §1, with “Then the proteins were transferred to PVDF membrane and blocked in 5% milk fat at room temperature for 1 hour. Then the membranes were incubated with indicated antibodies at 4° C. overnight. Membranes were washed with PBST buffer three times for 10 minutes each time and incubated with HRP-conjugated (horse radish peroxidase) secondary antibodies at room temperature for 1 hour. Again the membranes were washed with PBST buffer three times for 10 minutes each time. Finally, the indicated proteins on the membranes were visualized with ECL (enhanced chemiluminescence) reagents. MCF-7 cells were treated with EPZ015666 or YS43-22 at indicated compound concentrations (μM) for 6 days.” left out

The target of series [6] is T1, PRMT5. Put plainly: Western blot of PRMT5 protein levels in multiple cell lines. Format: cell-based. Details: endogenous in cells; host or cells: MCF-7. The settings on record: MCF-7, Hela, Jurkat, HCT116, 293T and H2171 cells, 5 μM, 6 days. How it is done:
as §1, with “Then the proteins were transferred to PVDF membrane and blocked in 5% milk fat at room temperature for 1 hour. Then the membranes were incubated with indicated antibodies at 4° C. overnight. Membranes were washed with PBST buffer three times for 10 minutes each time and incubated with HRP-conjugated (horse radish peroxidase) secondary antibodies at room temperature for 1 hour. Again the membranes were washed with PBST buffer three times for 10 minutes each time. Finally, the indicated proteins on the membranes were visualized with ECL (enhanced chemiluminescence) reagents. MCF-7 cells were treated with EPZ015666 or YS43-22 at indicated compound concentrations (μM) for 6 days.” left out

For series [7], the target named is T1, PRMT5. The series is described as follows: Western blot of PRMT5 protein levels in 293T cells. The settings on record: 5 μM, 6 days. Format: cell-based. On the set-up: endogenous in cells; host or cells: 293T (HEK293T). How it is done: as §1, with “Then the proteins were transferred to PVDF membrane and blocked in 5% milk fat at room temperature for 1 hour. Then the membranes were incubated with indicated antibodies at 4° C. overnight. Membranes were washed with PBST buffer three times for 10 minutes each time and incubated with HRP-conjugated (horse radish peroxidase) secondary antibodies at room temperature for 1 hour. Again the membranes were washed with PBST buffer three times for 10 minutes each time. Finally, the indicated proteins on the membranes were visualized with ECL (enhanced chemiluminescence) reagents. MCF-7 cells were treated with EPZ015666 or YS43-22 at indicated compound concentrations (μM) for 6 days.” left out

T1 sequence (O14744 whole entry): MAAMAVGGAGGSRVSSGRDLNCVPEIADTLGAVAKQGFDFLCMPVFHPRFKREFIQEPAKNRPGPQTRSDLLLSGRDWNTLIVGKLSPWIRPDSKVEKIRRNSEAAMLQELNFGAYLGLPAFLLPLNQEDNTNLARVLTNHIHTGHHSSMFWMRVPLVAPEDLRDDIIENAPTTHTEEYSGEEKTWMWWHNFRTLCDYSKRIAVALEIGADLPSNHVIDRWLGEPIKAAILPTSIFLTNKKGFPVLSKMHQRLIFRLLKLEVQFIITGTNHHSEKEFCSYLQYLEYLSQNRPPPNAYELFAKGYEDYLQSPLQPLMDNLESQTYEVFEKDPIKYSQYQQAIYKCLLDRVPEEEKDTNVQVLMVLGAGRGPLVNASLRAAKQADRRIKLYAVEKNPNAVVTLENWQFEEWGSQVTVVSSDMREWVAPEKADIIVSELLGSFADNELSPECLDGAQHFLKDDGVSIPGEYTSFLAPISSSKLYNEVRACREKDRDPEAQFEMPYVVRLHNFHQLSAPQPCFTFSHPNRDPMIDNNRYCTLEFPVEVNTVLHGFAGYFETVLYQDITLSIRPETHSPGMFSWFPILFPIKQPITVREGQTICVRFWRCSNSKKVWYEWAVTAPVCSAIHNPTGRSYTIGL
T1 sequence (Q9BQA1 whole entry partner): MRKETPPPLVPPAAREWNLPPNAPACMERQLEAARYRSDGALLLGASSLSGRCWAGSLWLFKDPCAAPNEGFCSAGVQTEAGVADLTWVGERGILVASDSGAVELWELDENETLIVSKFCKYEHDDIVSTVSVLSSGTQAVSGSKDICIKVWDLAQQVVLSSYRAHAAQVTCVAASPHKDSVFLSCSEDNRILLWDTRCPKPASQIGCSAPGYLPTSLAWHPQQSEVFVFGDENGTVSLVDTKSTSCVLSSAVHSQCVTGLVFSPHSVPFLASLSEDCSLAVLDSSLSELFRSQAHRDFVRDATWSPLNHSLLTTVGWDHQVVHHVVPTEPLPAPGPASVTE

As to `Cc1ncsc1-c1ccc([C@H](C)NC(=O)[C@@H]2C[C@@H](O)CN2C(=O)[C@@H](NC(=O)COCCOCCOCCOCCOCC(=O)N2CC(Nc3cc(C(=O)NC[C@H](O)CN4CCc5ccccc5C4)ncn3)C2)C(C)(C)C)cc1` [YS43-22, N-((S)-3-(3,4-dihydroisoquinolin-2(1H)-yl)-2-hydroxypropyl)-6-((1-((S)-19-((2S,4R)-4-hydroxy-2-(((S)-1-(4-(4-methylthiazol-5-yl)phenyl)ethyl)carbamoyl)pyrrolidine-1-carbonyl)-20,20-dimethyl-17-oxo-3,6,9,12,15-pentaoxa-18-azahenicosanoyl)azetidin-3-yl)amino)pyrimidine-4-carboxamide], the “suppressing PRMT5 activity” value in the series on PRMT5 substrates (MCF-7 cells (Examples 90-92)) is reported as “especially effective”. Also, the “inhibition of arginine symmetric dimethylation” value in the series with PRMT5 substrates (MCF-7 cells, indicated concentrations (μM), 6 days) is on record as “significantly inhibited; also recorded: significant inhibition”. The “cell growth of MCF-7 cells” value with MCF-7 cells is recorded as “significantly reduced; also recorded: significant potency; also recorded: significantly inhibited”. For the same molecule, in series [1], the clinical observations result is “no abnormal clinical observations”. In addition, the “bioavailability (plasma concentrations)” value in series [1] (15 min to 12 h post dosing, 150 mg/kg) is given as “Bioavailable”. Also, the PRMT5 protein levels result is “very well” at PRMT5 [2]; “moderately” on PRMT5 [3]; “slightly” at PRMT5 [4]; “not obviously” on PRMT5 [5]; “slightly” on PRMT5 [7]. For the same molecule, the “PRMT5 protein levels in different cell lines” value at PRMT5 [6] is listed as “significantly reduced”. Further, at PRMT5 [6], the “relative potency in down-regulation of PRMT5 protein levels” value is reported as “more potent than YS43-8”.
